The source of these data is patent publication US6649172B2, “Amphipathic aldehydes and their uses as adjuvants and immunoeffectors” (Corixa Corporation, priority 2000, dated 2003).

One may read the melting point as the temperature of the solid-liquid transition.

The test system of data set [1] is sheep red blood cells (SRBC). Particulars: cited from earlier work.
Data set [2] concerns CD8+, IFNγ+ cells. The data set is described as follows: CD8+, IFNγ+ lymphocytes by flow cytometry, spleen cells of vaccinated mice (Example 8). For CTL Ratio of CD8+, IFNγ+ Lymphocytes: key: N: 1:5000-1:1000; 1N: 1:999-1:750; 2N: 1:749-1:500; 3N: 1:499-1:250; 4N: 1:249-1:200; 5N: 1:199-1:100. Format: in vivo, BALB/c mice. Particulars: for CTL Ratio of CD8+, IFNγ+ Lymphocytes: female BALB/c mice, s.c. days 0 and 14, spleen cells 11 days after secondary vaccination; for CTL response to the hepatitis vaccine antigen (summary in words): rHBsAg vaccine, s.c. days 0 and 14, mice, CD8+, IFNγ+ flow cytometry. As for the experimental part: Spleen cells were collected from donor mice 11 days after the secondary vaccination and evaluated for CTL activity. The rHBsAg directed CTL was assessed by measurement of CD8+, IFNγ+ using flow cytometry.

Data set [3] deals with recombinant hepatitis B surface antigen (rHBsAg). The data set is described as follows: Serum antibody titers to rHBsAg by ELISA after vaccination (Example 8). Format: in vivo, BALB/c mice. Particulars: for adjuvant activity: serum antibody production (summary in words): rHBsAg vaccine, s.c. days 0 and 14, mice. As for the experimental part:
Compounds 40, 42, and 44, were evaluated for adjuvant activity with a model hepatitis B vaccine. These compounds were prepared as aqueous formulations in PBS and admixed with recombinant hepatitis B surface antigen (rHBsAg) with or without the AGP adjuvant 99. Compound 99 was solubilized in an aqueous formulation containing dipalmitoylphosphatidyl choline in water. Mice were administered the vaccines on days 0 and 14 by subcutaneous (s.c.) injection. The antigen-specific immune response to rHBsAg was evaluated by measurement of serum antibody and cytotoxic T lymphocytes (CTL). The results shown in Table 3 confirm the adjuvant activity of compounds of 40, 42, and 44.

Data set [4] has the same test system. The data set is described as follows: Serum antibody titers to rHBsAg by ELISA after vaccination (Example 7). Format: in vivo, BALB/c mice. On the procedure:
For the evaluation of antibody responses, […] by vaginal wash and individually tested for HBsAg-specific antibody activity by enzyme-linked immunosorbent assay (ELISA). The endpoint antibody titers of each mouse are evaluated as total IgG, IgG1, IgG2a, IgG2b and IgA specific for rHBsAg.
Compound III, isotucaresol, was evaluated for adjuvant activity with a model hepatitis B vaccine. III, was prepared as an aqueous formulation in PBS and admixed with recombinant hepatitis B surface antigen (rHBsAg) (Rhein Biotech, Düisseldorf, Germany) with or without the AGP adjuvant 99 (2-[(R)-3-tetradecanoyloxytetradecanoylamino]ethyl 2-Deoxy-4-O-phosphono-3-O-[(R)-3-tetradecanoyloxytetradecanoyl]-2-[(R)-3-tetradecanoyloxytetradecanoylamino]-β-D-glucopyranoside Triethylammonium Salt). Mice were administered the vaccines on days 0 and 21 by subcutaneous (s.c.) injection of vaccine containing 1 μg rHBsAg±1000 μg III±5 μg 99. The antigen-specific immune response to rHBsAg was evaluated by measurement of serum antibody and cytotoxic T lymphocytes (CTL).
In general terms: In an ELISA, binding on a coated surface is turned into a signal by an enzyme label.

For data set [5], the system named is transfected P815 cell line (P815S). As to the kind of experiment: CTL activity, four hour 51Cr-release assay with spleen cells of vaccinated mice (Example 7). Format: in vivo, BALB/c mice. Particulars: for Percent Specific Cell Lysis (50:1): 50:1 effector:target ratio, P815S targets, spleen cells 26 days after secondary vaccination, s.c. days 0 and 21, 1 μg rHBsAg ± 1000 μg III ± 5 μg 99. As for the experimental part:
Fourteen days after the second injection single cell suspensions are prepared from splenic lymphocytes of 3 mice per group. The spleen cells (75×10^6) are subsequently incubated at 37° C. in 10 ml RP10-SC media containing 50 nM of an L^d-restricted HBV CTL epitope ([…]) for 4 days. Stimulated effector cells are harvested, resuspended to 5×10^6 […] and serially diluted (in triplicate) in a volume of 100 μl RP10-SC/well of a 96 well microtiter plate followed by the addition of […] of RP10-SC containing 1×10^4 51Cr labeled P815S target cells (transfected P815 cells (H-2^d) expressing the hepatitis B S-antigen). Plates are centrifuged for 5 min at 400×g and placed in a 37° C. CO2 incubator for 4 h. Percent specific cytotoxicity is then determined.
(§1) Spleen cells were collected from donor mice 26 days after the secondary vaccination and evaluated for CTL activity. rHBsAg directed specific lysis was assessed in a standard four hour ^51Cr-release assay and by measurement of CD8+, IFNγ+ using flow cytometry.

Data set [6] has as its system CD8+, IFNγ+ cells. As to the kind of experiment: CD8+, IFNγ+ lymphocytes by flow cytometry, spleen cells of vaccinated mice (Example 7). Note: key: N: 1:5000-1:1000; 1N: 1:999-1:750; 2N: 1:749-1:500; 3N: 1:499-1:250; 4N: 1:249-1:200; 5N: 1:199-1:100. Format: in vivo, BALB/c mice. Particulars: spleen cells 26 days after secondary vaccination, 75 nM CTL epitope peptide, six-hour incubation; s.c. days 0 and 21, 1 μg rHBsAg ± 1000 μg III ± 5 μg 99. As for the experimental part:
as §1
Background: In flow cytometry, cells or beads pass a laser one at a time.

The mark [7] stands for this setting: adjuvant dose 250 μg with rHBsAg.
Setting [8] is: adjuvant dose 500 μg with rHBsAg.
[9] abbreviates: adjuvant dose 1000 μg with rHBsAg.
[10] abbreviates: adjuvant dose 250 μg with rHBsAg, female BALB/c mice, s.c. days 0 and 14, serum 11 days post-secondary vaccination, ELISA.
The mark [11] stands for this setting: 1 μg rHBsAg + 1000 μg III + 5 μg 99, s.c. days 0 and 21, mice.
Setting [12] is: female BALB/c mice, s.c. days 0 and 21, 1 μg rHBsAg ± 1000 μg III ± 5 μg 99, serum 21 days post-secondary vaccination, ELISA.
The mark [13] stands for this setting: adjuvant dose 5 μg with rHBsAg, female BALB/c mice, s.c. days 0 and 14, serum 11 days post-secondary vaccination, ELISA.

`C[C@@H]1CC[C@@]2(OC1)O[C@H]1[C@@H](O)[C@H]3[C@@H]4CC[C@H]5C[C@@H](O[C@@H]6O[C@H](CO)[C@H](O[C@@H]7O[C@H](CO)[C@@H](O)[C@H](O[C@@H]8OC[C@@H](O)[C@H](O)[C@H]8O)[C@H]7O[C@@H]7O[C@H](CO)[C@H](O)[C@H](O[C@@H]8O[C@H](CO)[C@@H](O)[C@H](O)[C@H]8O)[C@H]7O)[C@H](O)[C@H]6O)[C@H](O)C[C@]5(C)[C@H]4CC[C@]3(C)[C@H]1[C@@H]2C` [digitonin]: the “hemolytic activity towards red blood cells” value in data set [1] is “highly hemolytic”.

As for `O=Cc1cc(OCc2ccc(C(=O)O)cc2)ccc1OCC(=O)O` [Compound 42, 4-[(4-carboxymethoxy-3-formyl-phenoxy)methyl]benzoic acid], the melting point was 239 to 242 °C (dec.). The “CTL Ratio of CD8+, IFNγ+ Lymphocytes” value in the data set on CD8+, IFNγ+ cells [2] (setting [7]) came to 5N. Besides, the “CTL Ratio of CD8+, IFNγ+ Lymphocytes” value with CD8+, IFNγ+ cells [2] (setting [8]) was 3N. Further, the “CTL Ratio of CD8+, IFNγ+ Lymphocytes” value with CD8+, IFNγ+ cells [2] (setting [9]) is given as 2N. Moreover, the “CTL response to the hepatitis vaccine antigen (summary in words)” value in the data set with CD8+, IFNγ+ cells [2] was “enhance the CTL response”. Further, the “Gross Geometric Serum Titers IgG1” value in data set [3] (setting [10]) is listed as 1,000X. In data set [3], the “adjuvant activity: serum antibody production (summary in words)” value is “enhanced serum antibody production”.

`O=Cc1cc(OCc2ccc(C(=O)O)cc2)ccc1O` [Compound III, 4-[(3-formyl-4-hydroxyphenoxy)methyl]benzoic acid]: the melting point is 222 to 224 °C (dec.). The “interaction with the AGP adjuvant 99 on serum antibody (summary in words)” value in data set [4] (setting [11]) is listed as “acts synergistically”. Also, the “adjuvant activity: serum antibody production (summary in words)” value in data set [4] (1 μg rHBsAg + 1000 μg III, s.c. days 0 and 21, mice) is “enhanced serum antibody production”. Moreover, in data set [4] (setting [12]), the “Gross Geometric Mean Serum Titers IgG” value was 5,000X and the “Gross Geometric Mean Serum Titers IgG1” value was 5,000X. Further, the “effect on the CTL adjuvant activity induced by 99 (summary in words)” value in data set [5] (setting [11]) was “additive effect”. Besides, the “CTL response to the vaccine antigen (summary in words)” value in data set [5] (1 μg rHBsAg + 1000 μg III, s.c. days 0 and 21, mice, 51Cr-release and CD8+, IFNγ+ flow cytometry) is recorded as “enhances the CTL response”. Also, the “Percent Specific Cell Lysis (50:1)” value in data set [5] was 4+ (“4+” is 31-40 Percent Specific Cell Lysis). The “Lymphocytes CD8+, IFNγ+ (ratio of CD8+, IFNγ+ cells to total CD8+ cells)” value with CD8+, IFNγ+ cells [6] is 2N.

Turning to “2-[(R)-3-tetradecanoyloxytetradecanoylamino]ethyl 2-Deoxy-4-O-phosphono-3-O-[(R)-3-tetradecanoyloxytetradecanoyl]-2-[(R)-3-tetradecanoyloxytetradecanoylamino]-β-D-glucopyranoside triethylammonium salt [Compound 99, reference compound]”, in data set [4] (setting [12]), the “Gross Geometric Mean Serum Titers IgG1” value is recorded as 5,000X and the “Gross Geometric Mean Serum Titers IgG2a” value was 5,000X. Also, the “CTL Ratio of CD8+, IFNγ+ Lymphocytes” value in the data set with CD8+, IFNγ+ cells [2] (adjuvant dose 5 μg with rHBsAg) was 4N. Further, in data set [3] (setting [13]), the “Gross Geometric Serum Titers IGG” value was 5,000X and the “Gross Geometric Serum Titers IgG2a” value is given as 5,000X. In addition, in data set [5], the “Percent Specific Cell Lysis (50:1)” value is reported as 5+ (“5+” is 41-50 Percent Specific Cell Lysis). The “Lymphocytes CD8+, IFNγ+ (ratio of CD8+, IFNγ+ cells to total CD8+ cells)” value in the data set on CD8+, IFNγ+ cells [6] turned out to be 3N.

Regarding `COC(=O)c1ccc(COc2ccc(O)c(C=O)c2)cc1` [Compound 40, methyl 4-(3-formyl-4-hydroxyphenoxymethyl)benzoate], the melting point is 132 to 134 °C. In addition, in the data set with CD8+, IFNγ+ cells [2] (setting [7]), the “CTL Ratio of CD8+, IFNγ+ Lymphocytes” value amounted to 3N. Further, in the data set with CD8+, IFNγ+ cells [2] (setting [8]), the “CTL Ratio of CD8+, IFNγ+ Lymphocytes” value is listed as 2N. Besides, the “CTL Ratio of CD8+, IFNγ+ Lymphocytes” value with CD8+, IFNγ+ cells [2] (setting [9]) was 5N. For the same molecule, in the data set with CD8+, IFNγ+ cells [2], the “CTL response to the hepatitis vaccine antigen (summary in words)” value is listed as “enhance the CTL response”. Further, the “Gross Geometric Serum Titers IgG1” value in data set [3] (setting [10]) is listed as 1,000X. The “Gross Geometric Serum Titers IgG1” value in data set [3] (adjuvant dose 500 μg with rHBsAg, female BALB/c mice, s.c. days 0 and 14, serum 11 days post-secondary vaccination, ELISA) is given as 5,000X. The “Gross Geometric Serum Titers IgG1” value in data set [3] (adjuvant dose 1000 μg with rHBsAg, female BALB/c mice, s.c. days 0 and 14, serum 11 days post-secondary vaccination, ELISA) is 5,000X. Further, the “adjuvant activity: serum antibody production (summary in words)” value in data set [3] is listed as “enhanced serum antibody production”.

For `O=Cc1cc(OCc2ccc(C(=O)O)cc2)ccc1OCCCC(=O)O` [Compound 44], the “CTL Ratio of CD8+, IFNγ+ Lymphocytes” value in the data set with CD8+, IFNγ+ cells [2] (setting [7]) was found to be 4N; in the data set on CD8+, IFNγ+ cells [2] (setting [8]), 3N; in the data set with CD8+, IFNγ+ cells [2] (setting [9]), 2N. Further, the “CTL response to the hepatitis vaccine antigen (summary in words)” value with CD8+, IFNγ+ cells [2] is given as “enhance the CTL response”. For the same molecule, the “adjuvant activity: serum antibody production (summary in words)” value in data set [3] is recorded as “enhanced serum antibody production”.
